Like-named read-outs stand apart in the source and are kept apart here.
How the values were obtained:
[1] = tested on: human Kif5B 1–905-EGFP on stabilized MTs; test: Single-molecule kinesin-1 motility assay on stabilized MTs (TIRF); type: biochemical
Experimental: To gain mechanistic insight into the kinesin phenotype observed in cells, we reduced system complexity using an in vitro reconstitution assay. Specifically, we performed time-lapse imaging using total internal reflection fluorescence (TIRF) microscopy with immobilized and stabilized MTs in a flow chamber, into which we introduced 1.08 nM kinesin-1 motors (constitutively active human Kif5B 1–905-EGFP). We then analyzed individual kinesin movements to quantify landing rates (number of motors per unit MT length per unit time), run lengths, interaction times, and average velocities (Figure D, Movies S12–S15). In contrast to our experiments in cells, here we evaluated each structural modification individually to dissect the effects of MT lattice parameters on kinesin-1 mediated transport.
Total Internal Reflection Fluorescence microscopy experiments were performed on an inverted widefield microscope Nikon-Ti2 E, equipped with a motorized XY-stage, a perfect focus system, Apo TIRF 60× oil NA 1.49 objective and PRIME BSY (Teledyne Photometrics) camera. MTs were visualized using Interference Reflection microscopy (IRM) and fluorescently labeled proteins were visualized sequentially by switching between microscope filter cubes for GFP and mCherry channels. The microscopes were controlled using NIS Elements software (Nikon). All experiments were conducted at RT.
Microscopy chambers were prepared from two sandwiched silanized glass coverslips (22 × 22 mm^2 and 18 × 18 mm^2) attached through parafilm strips (heated for 15–20 s at 60 °C and gently pressed together) to form ∼2.5 mm wide parallel flow channels. Prior to the chamber assembly, the coverslips were washed in 3 M KOH, cleaned using Zepto plasma cleaner (Diener electronic) and silanized with hexamethyldisilazane. Flow channels were first incubated with 40 μgml^–1 antibiotin antibodies (Sigma, B3640) in PBS for 10 min, followed by incubation with 1% Pluronic F127 (Sigma-Aldrich, P2443) in PBS for at least 1 h. F127 was washed with BRB80 (80 mM PIPES, 1 mM EGTA, 1 mM MgCl2, pH 6.9).
Porcine brain tubulin was isolated using the high-molarity PIPES procedure then mixed with Biotin labeled tubulin (Cytoskeleton Inc., T333P) in 1:49 ratio. All MTs were polymerized using 2% biotin-labeled tubulin. […] Polymerized MTs were centrifuged for 30 min at 18,000g in a Microfuge 18 Centrifuge (Beckman Coulter’s). […] Drug stabilized preassembly MTs (polymerized in the presence of drugs and GTP, stored and imaged in presence of drug) were polymerized from 4 mg mL^–1 biotinylated tubulin for 30 min at 37 °C in BRB80 supplemented with 4 mM MgCl2, 40 μM drug of interest in 5% DMSO, and 1 mM GTP. Polymerized MTs were centrifuged for 30 min at 18,000g in a Microfuge 18 Centrifuge (Beckman Coulter’s). […] GMPCPP stabilized MTs (GMPCPP polymerized) were assembled from 4 mg mL^–1 biotinylated tubulin for 2 h at 37 °C in BRB80 supplemented with 1 mM MgCl2 and 1 mM GMPCPP (Jena Bioscience, NU-405). Polymerized MTs were centrifuged for 30 min at 18,000g in a Microfuge 18 Centrifuge (Beckman Coulter’s) and pellets were resuspended and kept in BRB80.
Stabilized MTs were flushed into the channel and incubated for 15–30 s to allow for surface attachment. Unbound MTs were removed by washing with BRB80 supplemented with 10 μM of drug. Prior the experiment, the solution was exchanged by motility buffer, MB (BRB80 containing 10 mM DTT, 20 mM D-glucose, 0.1% Tween-20, 0.5 mg/mL casein, 1 mM Mg-ATP, 0.02 mg/mL catalase, 0.22 mg/mL glucose oxidase, 10 μM drug). Subsequently, a solution containing either 1.08 nM Kif5b-EGFP or 10/40 nM mCherry-Tau in MB was introduced into the chamber.
To assess kinesin-EGFP motility along MTs, an IRM image (50 ms exposure) was acquired followed by a 1 min video using 488 nm laser excitation (20% laser intensity, 300 ms exposure) with no delay. Two to three videos were recorded from different fields within the same channel and at least 2 channels were measure for each experimental condition. […]

A549 cells = test: Indirect immunofluorescence of the microtubular network; type: cell-based, human; conditions: 24 h
Source text: We first assessed their impact on the cellular microtubular network. […] These defects manifested as multinucleated cells resulting from multiple abnormal star-like spindles, leading to an aberrant arrangement of chromosomes. […] We then evaluated their ability to overcome intrinsic resistance mechanisms using cell lines overexpressing βIII-tubulin isotype (HeLaβIII) or P-glycoprotein, PgP, (Kb-V1), compared to parental HeLa and Kb-3.1 cells.
2 Cellular and biochemical characterization of compounds 1a and 1b. (A) Effects of compounds on A549 cells. […] Top row panels are control cells treated with 0.5% DMSO (vehicle), with the usual and evenly distributed microtubular network in interphase and normal bipolar spindle with chromosomes aligned at the metaphase plate during mitosis. […] All images are shown at the same magnification; scale bar 10 μm. […] (C) Van’t Hoff Plot of the equilibrium binding constants of compounds 1a and 1b at the assayed temperatures. Error bars represent the standard error of the measurement.
DMSO was always less than 0.5% v/v. PEG and Triton X-100 were applied to cells prior the fixation with 3.7% formaldehyde, as previously described. Cells were incubated with a DM1A mouse monoclonal antibody (Sigma-Aldrich) reacting with α-tubulin. […] Images were recorded using a Leica DFC360 FX CCD camera.

[2] = tested on: taxane site of assembled cross-linked MTs; conditions: cited from earlier work
[3] = equilibrium constants from anisotropy measurements, ref footnote c 'As in ref .' (number not given)
[4] = ref footnote b 'As in ref .' (number not given)

CC(=O)OC1C(=O)C2(C)C(OC(=O)CCCCC(=O)OC3CCc4ccccc43)CC3OCC3(OC(C)=O)C2C(OC(=O)c2ccccc2)C2(O)CC(OC(=O)C(O)C(NC(=O)c3ccccc3)c3ccccc3)C(C)=C1C2(C)C (centres unmarked) [1a, 7-O-(6″-O-(2‴,3‴-Dihydroinden-1‴-yl)hexanedioyl) Paclitaxel]
kinesin-1 landing rate on stabilized MTs ([1]; 1.08 nM Kif5b-EGFP, 10 μM drug): increased on 1a compared with 1b
kinesin-1 time bound on stabilized MTs ([1]; 1.08 nM Kif5b-EGFP, 10 μM drug): increased the time bound
kinesin-1 velocity on stabilized MTs ([1]; 1.08 nM Kif5b-EGFP, 10 μM drug): decreased the velocity
selected concentration showing equivalent effect on microtubular network and mitotic spindles (A549 cells): 2 µM

COc1ccc2c(c1)CC(NC(=O)CCCCCCCC(=O)OC1CC3OCC3(OC(C)=O)C3C(OC(=O)c4ccccc4)C4(O)CC(OC(=O)C(O)C(NC(=O)c5ccccc5)c5ccccc5)C(C)=C(C(OC(C)=O)C(=O)C13C)C4(C)C)CC2 [1b, 7-O-((S)-9″-(7‴-Methoxy-1‴,2‴,3‴,4‴-tetrahydronaphthalen-2‴-yl)amino) −9″-oxononanoyl) Paclitaxel]
selected concentration showing equivalent effect on microtubular network and mitotic spindles (A549 cells): 1 µM

CC(=O)O[C@H]1C(=O)[C@]2(C)[C@@H](OC(=O)[C@H](C)NC(=O)c3ccc(-c4c5cc(F)c(=O)cc-5oc5cc(O)c(F)cc45)c(C(=O)O)c3)C[C@H]3OC[C@@]3(OC(C)=O)[C@H]2[C@H](OC(=O)c2ccccc2)[C@]2(O)C[C@H](OC(=O)[C@H](O)[C@@H](NC(=O)c3ccccc3)c3ccccc3)C(C)=C1C2(C)C [FTX2, Flutax2]
K b 26 °C [2, 3]: (5.9 ± 0.3) × 10^7 M-1
K b 35 °C [2, 3]: (2.2 ± 0.2) × 10^7 M-1
K b 42 °C [2, 3]: (1.8 ± 0.2) × 10^7 M-1

CC(=O)O[C@H]1C(=O)[C@@]2(C)[C@H]([C@H](OC(=O)c3ccccc3)[C@]3(O)C[C@H](OC(=O)[C@H](O)[C@@H](NC(=O)c4ccccc4)c4ccccc4)C(C)=C1C3(C)C)[C@]1(OC(C)=O)CO[C@@H]1C[C@@H]2O [PTX, Paclitaxel]
K b 26 °C [2, 4]: (2.64 ± 0.17) × 10^7 M-1
K b 35 °C [2, 4]: (1.43 ± 0.17) × 10^7 M-1
K b 42 °C [2, 4]: (0.94 ± 0.23) × 10^7 M-1
ΔG 0 app at 26 °C [2, 4]: –41.7 ± 0.2 kJ mol^–1
ΔS 0 app [2, 4]: –29.3 ± 13.1 J mol ^aK^–1
kinesin-1 run length on stabilized MTs ([1]; compared to native-like MTs): reduce run length

— paper PMC13492380, “Dissecting Structural and Functional Determinants of Microtubules Stabilization through Guided Chemical Modulation” (Journal of Medicinal Chemistry, 2026)
